In ChEMBL document CHEMBL1201862, “PubChem BioAssay data set” (2004):
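Following 48 hours of exposure in 96-well plates, responses at five concentrations were used to interpolate endpoints linearly. At the GI50, growth is halved.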 Activity calls are given as the source filed them. No stated cut-off is given here; in the data, active = GI50 up to about 1.1 µM and inactive = higher.

Key:
Assay in all cases: inhibition of tumour cell growth, NCI panel, 48 h
HCT-116 = tested on: HCT-116
SNB-75 = tested on: SNB-75
Malme-3M = tested on: Malme-3M
NCI-H460 = tested on: NCI-H460
NCI-H226 = tested on: NCI-H226
EKVX = tested on: EKVX
HOP-62 = tested on: HOP-62
PC-3 = tested on: PC-3
SNB-19 = tested on: SNB-19
SF-539 = tested on: SF-539
NCI-H23 = tested on: NCI-H23
A549 = tested on: A549
DU-145 = tested on: DU-145
KM12 = tested on: KM12
K562 = tested on: K562
SR = tested on: SR
TK-10 = tested on: TK-10
U-251 = tested on: U-251
SF-295 = tested on: SF-295
BT-549 = tested on: BT-549
SF-268 = tested on: SF-268
SK-MEL-5 = tested on: SK-MEL-5
A498 = tested on: A498
SK-OV-3 = tested on: SK-OV-3
HCT-15 = tested on: HCT-15
ACHN = tested on: ACHN
SW-620 = tested on: SW-620
OVCAR-3 = tested on: OVCAR-3
SK-MEL-2 = tested on: SK-MEL-2
MDA-N = tested on: MDA-N
RXF 393 = tested on: RXF 393
OVCAR-4 = tested on: OVCAR-4
MDA-MB-435 = tested on: MDA-MB-435
M14 = tested on: M14
SK-MEL-28 = tested on: SK-MEL-28
OVCAR-5 = tested on: OVCAR-5
CAKI-1 = tested on: CAKI-1
UO-31 = tested on: UO-31
LOX IMVI = tested on: LOX IMVI
OVCAR-8 = tested on: OVCAR-8
NCI-H522 = tested on: NCI-H522
COLO 205 = tested on: COLO 205
786-0 = tested on: 786-0
UACC-257 = tested on: UACC-257
CCRF-CEM = tested on: CCRF-CEM
HOP-92 = tested on: HOP-92
IGROV-1 = tested on: IGROV-1
HCC 2998 = tested on: HCC 2998
T47D = tested on: T47D
MCF7 = tested on: MCF7
HT-29 = tested on: HT-29
UACC-62 = tested on: UACC-62
SN12C = tested on: SN12C
RPMI-8226 = tested on: RPMI-8226
Hs-578T = tested on: Hs-578T
MDA-MB-231 = tested on: MDA-MB-231
NCI/ADR-RES = tested on: NCI/ADR-RES
MOLT-4 = tested on: MOLT-4
HL-60 = tested on: HL-60

Measured: GI50

CC(=O)OCC1OC(N2C(c3ccccc3)=CC(c3ccco3)C(C#N)=C2S)C(OC(C)=O)C(OC(C)=O)C1OC(C)=O (stereo not drawn)
> 100 µM: HCT-15
inactive: HCT-116 3.18 µM | SNB-75 2.55 µM | Malme-3M 3.04 µM | NCI-H460 14.7 µM | NCI-H226 6.71 µM | EKVX > 29 µM | HOP-62 6.27 µM | PC-3 11.5 µM | SNB-19 11.9 µM | SF-539 2.06 µM | NCI-H23 5.79 µM | A549 9.44 µM | DU-145 19.7 µM | KM12 15.3 µM | K562 4.25 µM | SR 7.85 µM | TK-10 18.7 µM | U-251 2.54 µM | SF-295 14.4 µM | BT-549 3.59 µM | SF-268 4.63 µM | SK-MEL-5 3.01 µM | A498 15.2 µM | SK-OV-3 21.7 µM | ACHN 7.85 µM | SW-620 1.36 µM | OVCAR-3 5.75 µM | SK-MEL-2 28.8 µM | MDA-N 11.3 µM | RXF 393 4.06 µM | OVCAR-4 3.33 µM | MDA-MB-435 8.11 µM | M14 4.65 µM | SK-MEL-28 8.79 µM | OVCAR-5 6.9 µM | CAKI-1 14.7 µM | UO-31 9.23 µM | LOX IMVI 5.74 µM | OVCAR-8 2.83 µM | NCI-H522 16.6 µM | COLO 205 3 µM | 786-0 2.03 µM | UACC-257 > 32.1 µM | CCRF-CEM 12.6 µM | HOP-92 6.22 µM | IGROV-1 27.4 µM | HCC 2998 14.8 µM | T47D 30.4 µM | MCF7 25.5 µM | HT-29 5.94 µM | UACC-62 13.6 µM | SN12C 4.22 µM | RPMI-8226 9.1 µM | Hs-578T 2.17 µM | MDA-MB-231 3.13 µM | NCI/ADR-RES 4.78 µM | MOLT-4 > 22.2 µM | HL-60 10.4 µM

Cc1nc2sc(C(=O)c3ccc(Cl)cc3)c(N)c2c(-c2ccccc2Cl)c1C(=O)Nc1ccccc1
15.6 µM: HCT-15
inactive: HCT-116 6.44 µM | SNB-75 11.4 µM | Malme-3M 13 µM | NCI-H460 9.02 µM | NCI-H226 17.7 µM | EKVX 21.9 µM | HOP-62 15.8 µM | PC-3 19 µM | SNB-19 22.2 µM | SF-539 14.7 µM | NCI-H23 16.6 µM | A549 9.06 µM | DU-145 19.1 µM | KM12 18.5 µM | K562 12.3 µM | SR 18.1 µM | TK-10 6.76 µM | U-251 7.08 µM | SF-295 20.7 µM | BT-549 20.2 µM | SF-268 19.3 µM | SK-MEL-5 17.4 µM | A498 21.3 µM | SK-OV-3 14.4 µM | ACHN 21.2 µM | SW-620 6.22 µM | OVCAR-3 16.4 µM | SK-MEL-2 3.08 µM | MDA-N 10.8 µM | RXF 393 14.7 µM | OVCAR-4 16.5 µM | MDA-MB-435 12.2 µM | M14 9.71 µM | SK-MEL-28 13.1 µM | OVCAR-5 16 µM | CAKI-1 12 µM | UO-31 17.3 µM | LOX IMVI 12.2 µM | OVCAR-8 13.4 µM | NCI-H522 5.51 µM | COLO 205 18.3 µM | 786-0 10 µM | UACC-257 18.6 µM | CCRF-CEM 3.77 µM | HOP-92 3.08 µM | IGROV-1 19 µM | HCC 2998 23.6 µM | T47D 2.93 µM | MCF7 15.2 µM | HT-29 12.2 µM | UACC-62 13.6 µM | SN12C 9.42 µM | RPMI-8226 23.3 µM | Hs-578T 20.1 µM | MDA-MB-231 14.2 µM | NCI/ADR-RES 19.5 µM | MOLT-4 14 µM | HL-60 11.2 µM
